Measured values taken from patent publication US20090012061A1, “A Method of Treating Cancer” (priority 2004, published 2009).
“And” between values parts separate entries of the source, which are not always exact repeats. Equal entries are not always repeated. Where two headings read alike, the source gives them in different places.

What was measured:
[1] = target: T1, human KSP motor domain (KSP(367H)) (Homo sapiens, UniProt P52732); assay: Kinesin ATPase in vitro assay (KSP ATPase, quinaldine red/ammonium molybdate phosphate detection); format: biochemical
T1 construct: were used to amplify the motor domain and the neck linker region; made in house; host or cells: E. coli BL21 (DE3), pRSETa
T1 sequence (P52732 18-359 limits assumed): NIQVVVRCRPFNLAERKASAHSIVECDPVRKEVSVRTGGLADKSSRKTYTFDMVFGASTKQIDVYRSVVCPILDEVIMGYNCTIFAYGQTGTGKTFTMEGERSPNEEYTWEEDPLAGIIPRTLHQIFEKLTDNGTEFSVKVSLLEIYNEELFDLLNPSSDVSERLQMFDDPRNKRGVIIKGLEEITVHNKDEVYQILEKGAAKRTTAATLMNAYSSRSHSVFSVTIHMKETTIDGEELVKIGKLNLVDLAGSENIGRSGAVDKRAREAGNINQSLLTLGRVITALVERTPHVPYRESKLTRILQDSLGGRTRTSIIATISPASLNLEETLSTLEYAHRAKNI
Excerpt: Plasmids for the expression of the human KSP motor domain construct were cloned by PCR using a pBluescript full length human KSP construct (Blangy et al., Cell, vol. 83, pp 1159-1169, 1995) as a template. The N-terminal primer 5′-[…] (SEQ.ID.NO.: 1) and the C-terminal primer 5′-[…] […] (SEQ.ID.NO.: 2) were used to amplify the motor domain and the neck linker region. The PCR products were digested with AseI and XhoI, ligated into the NdeI/XhoI digestion product of pRSETa (Invitrogen) and transformed into E. coli BL21 (DE3).
Cells were grown at 37° C. to an OD600 of 0.5. After cooling the culture to room temperature expression of KSP was induced with 100 μM IPTG and incubation was continued overnight. Cells were pelleted by centrifugation and washed once with ice-cold PBS. Pellets were flash-frozen and stored −80° C.
Cell pellets were thawed on ice and resuspended in lysis buffer (50 mM K-HEPES, pH 8.0, 250 mM KCl, 0.1% Tween, 10 mM imidazole, 0.5 mM Mg-ATP, 1 mM PMSF, 2 mM benzimidine, 1× complete protease inhibitor cocktail (Roche)). Cell suspensions were incubated with 1 mg/ml lysozyme and 5 mM β-mercaptoethanol on ice for 10 minutes, followed by sonication (3×30 sec). All subsequent procedures were performed at 4° C. Lysates were centrifuged at 40,000×g for 40 minutes. Supernatants were diluted and loaded onto an SP Sepharose column (Phamacia, 5 ml cartridge) in buffer A (50 mM K-HEPES, pH 6.8, 1 mM MgCl2, 1 mM EGTA, 10 μM Mg-ATP, 1 mM DTT) and eluted with a 0 to 750 mM KCl gradient in buffer A. Fractions containing KSP were pooled and incubated with Ni-NTA resin (Qiagen) for one hour. The resin was washed three times with buffer B (Lysis buffer minus PMSF and protease inhibitor cocktail), followed by three 15-minute incubations and washes with buffer B. Finally, the resin was incubated and washed for 15 minutes three times with buffer C (same as buffer B except for pH 6.0) and poured into a column. KSP was eluted with elution buffer (identical to buffer B except for 150 mM KCl and 250 mM imidazole). KSP-containing fractions were pooled, made 10% in sucrose, and stored at −80° C.
Microtubules are prepared from tubulin isolated from bovine brain. Purified tubulin (>97% MAP-free) at 1 mg/ml is polymerized at 37° C. in the presence of 10 μM paclitaxel, 1 mM DTT, 1 mM GTP in BRB80 buffer (80 mM K-PIPES, 1 mM EGTA, 1 mM MgCl2 at pH 6.8). The resulting microtubules are separated from non-polymerized tubulin by ultracentrifugation and removal of the supernatant. The pellet, containing the microtubules, is gently resuspended in 10 μM paclitaxel, 1 mM DTT, 50 μg/ml ampicillin, and 5 μg/ml chloramphenicol in BRB80.
(§1) The kinesin motor domain (20 nM) is incubated with microtubules, ATP (1 mM 1:1 MgCl2: Na-ATP), and compound at 23° C. in buffer containing 80 mM K-HEPES (pH 7.0), 1 mM EGTA, 1 mM DTT, 1 mM MgCl2, and 50 mM KCl. The reaction is terminated by a 2-10 fold dilution with a final buffer composition of 80 mM HEPES and 50 mM EDTA (or, alternately, with a 1:1 addition of reaction volume to stop buffer(1.8M KCl and 50 mM EDTA)). Free phosphate from the ATP hydrolysis reaction is measured via a quinaldine red/ammonium molybdate assay by adding a 1.5 times volume of quench C (e.g., to a mixture of […] reaction volume+40 μl stop buffer is then added 120 μl quench C). Quench A contains 0.1 mg/ml quinaldine red and 0.14% polyvinyl alcohol; quench B contains 12.3 mM ammonium molybdate tetrahydrate in 1.15 M sulfuric acid. Quench C is a 2:1 ratio of quench A:quench B The reaction is incubated for 5-10 minutes at 23° C., and the absorbance of the phospho-molybdate complex is measured at 540 nm.
In order to identify compounds useful in the methods of the instant invention, the assay described above was then performed in the presence (0.5 μM) and absence of microtubules. Compounds that are commercially available are noted by the source and catalog number.

[2] = target: T1, human KSP motor domain (KSP(367H)); assay: Substrate competitive profile by Michaelis-Menton analysis with the KSP ATPase assay; format: biochemical; conditions: for Competitive with ATP?: ATP varied between 4 μM and 500 μM, in the presence of 2 μM of microtubules; for Competitive with MT?: microtubules varied between 0.01 μM and 5 μM, in the presence of 1 mM of ATP
Experimental: as §1
The in vitro substrate competitive profiles of the compounds described in Table 1 below were determined using a Michaelis-Menton analysis with the assay described above, but varying assay concentrations of one of the substrates (ATP or microtubule) in the presence of excess of the second substrate. Thus, the concentration of ATP was varied between 4 μM and 500 μM, in the presence of 2 μM of microtubules. And the concentration of microtubules was varied between 0.01 μM and 5 μM, in the presence of 1 mM of ATP.

[3] = Table 1, kinesin motor domain 20 nM, with microtubules, 1 mM ATP, 23° C., read-out: KSP ATPase IC50
[4] = Table 2, microtubules absent (basal), [MT] = 0 uM, standard KSP(ADP), read-out: KSP ATPase IC50 (nM) [MT] = 0 uM
[5] = Table 2, microtubules present, [MT] = 0.5 uM, standard KSP(ADP), read-out: KSP ATPase IC50 (nM) [MT] = 0.5 uM

Compound	IC50 [1, 3]	IC50 [1, 4] [nM]	IC50 [1, 5]	Competitive with ATP? [2]	Competitive with MT? [2]	IC50 ([1]; KSP ATPase IC50 (nM) [MT] = 0 uM, Table 2, microtubules absent (basal), [MT] = 0 uM, standard KSP(ADP)) [nM]	IC50 ([1]; KSP ATPase IC50 (nM) [MT] = 0.5 uM, Table 2, microtubules present, [MT] = 0.5 uM, standard KSP(ADP))	IC50 ([1]; KSP ATPase IC50 (nM), Table 1, kinesin motor domain 20 nM, with microtubules, 1 mM ATP, 23° C.) [nM]
CCOC(=O)CSc1nc(C23CC4CC(CC(C4)C2)C3)ccc1C#N [Compound 12]	556 nM	> 50000	1150 nM	no	–	–	–	–
O=C(NC(C(=O)c1ccccc1)c1ccccc1)OCc1ccccc1 (centres unmarked) [Compound 3, N-(2-Oxo-1,2-diphenyl-ethyl)-carbamic acid benzyl ester]	2360 nM	> 50000	4050 nM and 2940 nM	no	no	–	–	–
O=C(Nc1nc2ccccc2s1)C(c1ccccc1)c1ccccc1 [Compound 2]	1090 nM	> 50000	1400 nM and 2150 nM	no	no	–	–	–
Cc1nn(C(=S)NCc2ccccc2)c2c1[C@H]1[C@@H](C2)C1(C)C [Compound 11]	1230 nM	> 50000	1820 nM and 1360 nM	no	no	–	–	–
CC(C)(C)c1ccc2[nH]c3c(c2c1)CCCC3=O [Compound 1]	597 nM	> 50000	619 nM and 685 nM	no	no	–	–	–
CSc1ccc(C(=O)N2CCCN(CC(=O)Nc3ccc(F)cc3)CC2)s1 [Compound 15]	7020 nM and 6750 nM	> 50000	8880 nM	no	no	–	–	–
C=CCNC(=O)c1cc(-c2ccc(Cl)cc2)n(-c2cc(Cl)ccc2Cl)n1 [Compound 8]	5040 nM	> 50000	3100 nM and 5540 nM	no	no	–	–	–
Cc1cc2ncn(CC(O)COc3ccc(I)cc3)c2cc1C (centres unmarked) [Compound 10]	4750 nM	> 50000	5040 nM	no	no	–	–	–
Oc1cccc(CC2(Cc3cccc(O)c3)Cc3ccccc3C2)c1 [Compound 5]	5870 nM	> 50000	7740 nM	no	no	–	–	–
CCCc1cc(N)c2cc(NC(=O)c3ccc(Oc4ccc(Cl)cc4)cc3)ccc2n1 [Compound 4]	3230 nM	> 50000	2550 nM and 3430 nM	no	no	–	–	–
CCN1C(=O)C(O)(c2ccccc2)c2cc(Br)ccc21 (centres unmarked) [Compound 14]	–	–	–	no	no	> 50000	8920 nM and 4600 nM	3920
Cc1ccc(NC(=O)C(c2ccccc2)c2ccccc2)cc1[N+](=O)[O-] [Compound 7]	3850 nM	> 50000	3690 nM and 6290 nM	no	no	–	–	–
O=C(c1cc([N+](=O)[O-])ccc1Cl)N1c2ccccc2Sc2ccccc21 [Compound 13]	864 nM	> 50000	2530 nM and 4520 nM	no	no	–	–	–
CC(C)(C)c1cccc(NC(=O)Nc2ccc3ccc(O)cc3c2)c1 [Compound 6, N-(3-tert-butylphenyl)-N-(7-hydroxy-2-naphthyl)urea]	1900 nM	> 50000	2780 nM	no	no	–	–	–
O=C(Nc1ccc(Br)c(Cl)c1)C(c1ccccc1)c1ccccc1 [Compound 9]	692 nM	> 50000	647 nM	no	no	–	–	–
